Consider two compounds from US5270310A, “N-aminoalkyl amide inhibitors of protein kinase C” (Sphinx Pharmaceuticals Corporation, priority 1991, dated 1993).

The subject of assay [1] is MCF-7 human breast tumor cell line. As to the kind of experiment: Human Tumor Cell Growth Inhibition, MCF-7. The note with it: Homo sapiens, MCF7; 3H-thymidine incorporation; value outside parentheses (not salt). Type of assay: cell-based. As to the method:
MCF-7 a human breast tumor cell line and MCF-7/ADR an adriamycin resistant line of MCF-7 cells were obtained from the National Cancer Institute, Frederick, Md. […] Human tumor cells are trypsinized (0.05% trypsin, GIBCO), counted with a hemacytometer and seeded at a concentration of 10,000 cells/well in a 96 well microtiter plate. After allowing cells to attach to the surface overnight, the culture medium is aspirated and replaced with 100 μl of fresh medium. Test agents are diluted to determine dose response at 2× final concentration and added in quadruplicate at 100 μl/well to bring the total volume of each well to 200 μl. The microtiter plate is then incubated at 37° C. 5% CO2 overnight (18-24 hrs) before ^3 H-thymidine is added at a concentration of 0.5 μCi/well in 50 μl culture medium. The plate is incubated again for 4 hrs under the same conditions as above. Supernatant is then aspirated and 50 μl trypsin (0.05%, GIBCO) is added to each well. Cells are checked microscopically to determine detachment from surfaces, and plates are then harvested with a cell harvester (PHD, Cambridge Technology, Inc.) Filter papers corresponding to wells are placed in scintillation vials and counted to determine the amount of ^3 H-thymidine incorporated by the cells. Test agent response is compared to a positive control of cell wells with culture media only to determine the IC50. IC50 is the concentration of test compound required to inhibit fifty per cent of the incorporation of ^3 H-thymidine into proliferating cells not exposed to test agent. Uptake of ^3 H-thymidine is a standard test for measuring the metabolism of cells. Cells which are actively proliferating take up ^3 H-thymidine, whereas cells that are not proliferating take up ^3 H-thymidine at much slower rates or not at all. Test agents that inhibit the uptake of ^3 H-thymidine thus slow the growth of cells.
(In general: Dividing cells build labelled thymidine or BrdU into new DNA.)

Assay [2] concerns MCF-7/ADR adriamycin resistant line of MCF-7 cells. As to the kind of experiment: Human Tumor Cell Growth Inhibition, MCF-7/ADR. Type of assay: cell-based. The note with it: NCI/ADR-RES, 3H-thymidine incorporation, value without parentheses (not salt). An excerpt:
MCF-7 a human breast tumor cell line and MCF-7/ADR an adriamycin resistant line of MCF-7 cells were obtained from the National Cancer Institute, Frederick, Md. CEM cells (ATCC accession number CCL 119) were obtained from the American Type Culture Collection, Rockville, Md. Human tumor cells are trypsinized (0.05% trypsin, GIBCO), counted with a hemacytometer and seeded at a concentration of 10,000 cells/well in a 96 well microtiter plate. After allowing cells to attach to the surface overnight, the culture medium is aspirated and replaced with 100 μl of fresh medium. Test agents are diluted to determine dose response at 2× final concentration and added in quadruplicate at 100 μl/well to bring the total volume of each well to 200 μl. The microtiter plate is then incubated at 37° C. 5% CO2 overnight (18-24 hrs) before ^3 H-thymidine is added at a concentration of 0.5 μCi/well in 50 μl culture medium. The plate is incubated again for 4 hrs under the same conditions as above. Supernatant is then aspirated and 50 μl trypsin (0.05%, GIBCO) is added to each well. Cells are checked microscopically to determine detachment from surfaces, and plates are then harvested with a cell harvester (PHD, Cambridge Technology, Inc.) Filter papers corresponding to wells are placed in scintillation vials and counted to determine the amount of ^3 H-thymidine incorporated by the cells. […]

A further assay addresses protein kinase C (PKC). As to the kind of experiment: Protein Kinase C Inhibition. It counts as biochemical, rat. As to the method: The protein kinase C (PKC) assay is designed to duplicate the in vivo conditions required for protein kinase C function. Therefore, pH, salt and cofactor concentrations are similar to physiologic levels. Histone H1 (lysine rich) is used in the assay as the phosphorylation acceptor protein because it is readily available and serves as a good substrate for protein kinase C. The enzyme is prepared from rat brain and is purified to apparent homogeneity as determined by a single band on silver stained SDS-polyacrylamide. Studies on the mechanism of regulation of protein kinase C by phospholipids, DAG and Ca^+2 have been hampered by the physical properties of the lipid cofactors. In the screening assay, phosphatidylserine (PS) and DAG are co-sonicated to form unilamellar and multilamellar vesicles. The concentration of lipids in the assay are suboptimal to maximize the detection potential of the assay for inhibitors. […] The assay is started with the addition of enzyme and stopped after 10 min by the addition of 25% trichloroacetic acid (TCA) and 1.0 mg/ml bovine serum albumin (BSA). The radioactive histone product is retained and washed on glass fiber filters that allow the unreacted ^32 P-ATP to pass through. The amount of phosphorylation is determined by the radioactivity measured in a scintillation counter. Controls are included in every assay to measure background activity in the absence of enzyme, activity in the absence of lipids and the maximum enzyme activity with saturating levels of the activator lipids.
Both the free base and the HCl salt were tested.

The target of assay [3] is T1, protein kinase (PKA), catalytic subunit (Homo sapiens, UniProt P17612).
T1 construct: purchased Sigma Chemical Company, St. Louis, Mo
In words: cAMP-Dependent Protein Kinase (PKA) Assay. The note with it: free base. Type of assay: biochemical. As to the method:
Compound found to be inhibitors of protein kinase C are tested for inhibitory activity against protein kinase (PKA). This enzyme, like protein kinase C, plays an important role in cell-cell communication and is activated by a second messenger, cAMP. Secondary screening against PKA is useful for ascertaining the selectivity of the compounds of the invention. The catalytic subunit of PKA (Sigma Chemical Company, St. Louis, Mo.) is mixed with buffer before addition of the inhibitor in dimethylsulfoxide (DMSO). The assay is started by the addition of 32P-ATP and the reaction is allowed to proceed for 10 min before stopping with 25% trichloroacetic acid (TCA) and 1.0 mg/ml bovine serum albumin (BSA). The phosphorylated protein is isolated by filtration and the radioactivity is counted in a beta scintillation counter.

Assay [4] deals with NHEK cells (proliferating keratinocytes). In words: Human Keratinocyte Inhibition. It counts as cell-based. As to conditions: 3H-thymidine incorporation, value outside parentheses (not salt), read-out: NHEK IC50. As to the method: Proliferating keratinocytes (NHEK cells purchased from Clonetics, Inc., San Diego, Calif.) in second passage were grown in Keratinocyte Growth Medium (KGM) (Clonetics, Inc.) Cells are trypsinized (0.025% trypsin, Clonetics), counted with a hemacytometer (Scientific Products), and seeded at a concentration of 2,500 cells/well in a 96 well microtiter plate. After allowing cells to attach to the surface overnight, the culture medium is aspirated and replaced with 100 μl of fresh KGM. […] IC50 is the concentration of test compound required to inhibit fifty percent of the incorporation of ^3 H-thymidine into proliferating cells not exposed to test agent.

Assay [5] has as its system PMA-stimulated neutrophils. As to the kind of experiment: Neutrophil Superoxide Anion (O2^-) Release Assay. Type of assay: cell-based, human. As to conditions: Homo sapiens, Neutrophil; PMA-stimulated; value outside parentheses (not salt); read-out: Neutrophil Superoxide Release IC50. As to the method:
Neutrophils are isolated form whole blood collected from human volunteers. All reagent materials are obtained from Sigma Chemical Company with the exception of isotonic saline (Travenol Laboratories, Inc., Deerfield, Ill.) and lymphocyte separation medium (Organon Teknika, Durham, N.C.).
Whole blood is drawn and mixed with sodium heparin (final conc. 10 units/ml) to prevent clotting. An equal volume of dextran (3.0%) in isotonic saline is added, mixed, and allowed to settle for 30 min to bind red blood cells (RBC). Supernatant is removed, underlayered with lymphocyte separation medium and centrifuged for 40 min at 400 xg in a centrifuge (Beckman GPR, Norcross, Ga). The pellet is alternately resuspended in 0.2% and 1.6% NaCl to lyse RBCs before washing with Hank's Balanced Salt Solution (HBSS). The washed pellet is resuspended in 10 mL HBSS and placed on ice before counting on a hemacytometer.
The neutrophil cell concentration is adjusted to 2×10^6 cells/ml with HBSS before adding 0.8 mL cells to 12×75 mm polypropylene test tubes (Fisher Scientific). Test agents are diluted to determine dose response and added at 10× final concentration at a volume of 0.1 mL/tube in duplicate. Then 10× concentrations of cytochrome C (15 mg/ml) with catalase (3000 units/ml) either alone or containing 25 ng/ml phorbol 12-myristate 13-acetate (PMA) are added at a volume of 0.1 mL/tube and incubated at 37° C. for 30 min before stopping the reaction by placing tubes on ice. Tubes are then centrifuged at 900 xg for 10 min, 0.5 mL supernatant is removed and added to 0.5 mL H2 O in a microcuvette. Optical density (OD) of cytochrome c is read in a spectrophotometer (Shimadzu) at 550 nm. The ΔOD of cytochrome c is obtained between PMA-stimulated and non-stimulated tubes, and the dose responses of the test agents are compared to the positive controls (which contain HBSS in place of test agents). PMA stimulates O2^- production which reduces cytochrome c. Reducing cytochrome c increases its absorbance, and the change in OD of cytochrome c is proportional to the amount of O2^- produced by PMA stimulation. Inhibition of the O2^- burst by test compounds of the invention is seen as a reduction in the change in optical density. Inhibition is expressed as IC50 μM and is the amount of test compound that will inhibit fifty percent of the PMA-stimulated respiratory outburst, i.e. O2^- production.

Consider `CCCCCCCCCCCCCCCC(=O)N(C)CCC[N+]1(C)CCOCC1` [Compound 16, 4-[N-hexadecanoyl-N-methyl-4-(3-aminopropyl)]-4-methylmorpholimium iodide], for which the IC50 (as a rule, the concentration at which inhibition is half-maximal) in assay [1] is 19.3 µM; in assay [2], above 25 µM; against protein kinase C (PKC) (free base), 22 µM; in assay [3] it was 131 µM; in assay [4] it was 1.4 µM.
Consider `CCCCCCCCCCCCCCCC(=O)NCCCN1CCCCC1C` (stereo not drawn) [Compound 11, 2-Methyl-l-[3-(N-hexadecanoyl)aminopropyl]piperidine], for which the IC50 is 4.1 µM in assay [1]; 2.6 µM in assay [2]; 1.8 µM in assay [5]; 66 µM at protein kinase C (PKC) (HCl salt); 130 µM against protein kinase C (PKC) (free base); above 217 µM in assay [3].
